Source: PubChem BioAssay (NCI)
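Each compound was tested at five concentrations against cells in 96-well plates for 48 hours. GI50: concentration for 50% inhibition of growth. The concentration for full growth arrest is given as TGI.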

Columns and labels:
Assay in all cases: growth of human tumour cells (NCI), 48 h
[1] = test system: KM12 colon
[2] = test system: DLD-1 colon
[3] = test system: KM20L2 colon
[4] = test system: RPMI-8226 leukemia
[5] = test system: HCC-2998 colon
[6] = test system: UACC-62 melanoma
[7] = test system: SK-MEL-28 melanoma
[8] = test system: EKVX NSCLC
[9] = test system: BT-549 breast
[10] = test system: MDA-MB-435

SMILES | TGI [1] [µM] | TGI [2] [µM] | TGI [3] [µM] | TGI [4] [µM] | TGI [5] [µM] | TGI [6] [µM] | TGI [7] [µM] | TGI [8] [µM] | TGI [9] [µM] | TGI [10] [µM] | GI50 [1] [µM] | GI50 [2] [µM] | GI50 [3] [µM] | GI50 [4] [µM] | GI50 [5] [µM] | GI50 [6] [µM] | GI50 [7] [µM] | GI50 [8] [µM] | GI50 [9] [µM] | GI50 [10] [µM]
C/C(CC(=O)NCCc1ccccc1)=N\NC(=O)C[n+]1ccccc1 | > 100 | > 100 | > 100 | > 100 | > 100 | > 100 | > 100 | > 100 | – | – | – | – | – | – | – | – | – | – | – | –
O=c1c2cc(Br)cc(Br)c2nc(CCCl)n1CCO | > 100 | > 100 | > 100 | > 100 | > 100 | > 100 | > 100 | > 100 | – | – | – | – | – | – | – | – | – | – | – | –
C=C1C(=O)OC2/C=C(\COC(C)=O)CCC(OC(C)=O)C3=CC(OC3=O)C12 (stereo unspecified) | 22.1 | 9.92 | 14.3 | > 100 | 29.2 | 17.6 | 11.6 | 34.3 | 22.6 | 32.9 | – | – | – | – | – | – | – | – | – | –
C1C[OH+]CC[OH+]CC[OH+]CC[OH+]CC[OH+]1.[Cl-].[V] | > 100 | > 100 | > 100 | > 100 | > 100 | > 100 | > 100 | – | – | – | 26.9 | > 100 | > 100 | > 100 | > 100 | 31.5 | 25.1 | – | – | –
COc1ccc(OC)c2c(C(=O)O)c(Cc3ccccc3)ccc12 | > 100 | > 100 | > 100 | – | > 100 | > 100 | > 100 | > 100 | – | – | – | – | – | – | – | – | – | – | – | –
S=C1OC2CCCC[C@H]2O1 (stereo partly specified) | > 100 | > 100 | > 100 | > 100 | > 100 | > 100 | > 100 | > 100 | – | – | – | – | – | – | – | – | – | – | – | –
O=C1CSC(/C(=N/Nc2ccccc2)c2nc3ccccc3[nH]2)=N1 | > 100 | > 100 | > 100 | – | > 100 | > 100 | 79 | > 100 | – | – | – | – | – | – | – | – | – | – | – | –
c1ccc(C2Nc3ccccc3C3OCCCC23)cc1 (stereo unspecified) | > 100 | > 100 | 47.7 | 60.2 | > 100 | 58.5 | – | 68.4 | – | – | – | – | – | – | – | – | – | – | – | –
CSC(C1c2ccccc2N(c2ccc(C)cc2)c2[nH]c(=O)n(C)c(=O)c21)S(=O)(=O)c1ccc(C)cc1 (stereo unspecified) | – | > 100 | > 100 | > 100 | > 100 | > 100 | > 100 | > 100 | – | – | – | – | – | – | – | – | – | – | – | –
CCCCCCCCCCCC(=O)OCC1OC(OC)C(NC(=O)N(CCCl)N=O)C(O)C1O (stereo unspecified) | 37.1 | 52.3 | 36.8 | 29.6 | 33.2 | 15.7 | 35.6 | – | – | – | – | – | – | – | – | – | – | – | – | –
COc1ccc2nc(NC(=O)C(=O)C(C#N)c3ccc([N+](=O)[O-])cc3)sc2c1 (stereo unspecified) | > 100 | > 100 | > 100 | > 100 | > 100 | > 100 | > 100 | > 100 | – | – | – | – | – | – | – | – | – | – | – | –
O=C1OC2CCCC[C@@H]2C2C[C@]34CCCCC3[C@@H](C(=O)O4)C12 (stereo partly specified) | > 100 | > 100 | > 100 | – | > 100 | > 100 | > 100 | > 100 | – | – | – | – | – | – | – | – | – | – | – | –
CCN(CC)c1ccc(N=Nc2ccc(-c3nc4ccc[n+](C)c4s3)cc2)cc1 | 10.9 | – | 19.9 | 25.7 | – | 26.6 | – | 58.8 | – | – | – | – | – | – | – | – | – | – | – | –
CC(C)(C)c1cc(C(O)(C(F)(F)F)C(F)(F)F)c2c(c1)C(C(F)(F)F)(C(F)(F)F)OC(C(C)(C)C)N2 (stereo unspecified) | 14 | 16.5 | 11.5 | 6.74 | 15.7 | 14.4 | 18.8 | 17.1 | – | – | – | – | – | – | – | – | – | – | – | –
CCOC(=O)NC(=O)c1cn(CCCOC(=O)CCCCCCCCCCC(=O)OCCCn2cc(C(=O)NC(=O)OCC)c(=O)[nH]c2=O)c(=O)[nH]c1=O | > 100 | > 100 | > 100 | > 100 | > 100 | > 100 | > 100 | > 100 | – | – | – | – | – | – | – | – | – | – | – | –
O=C1/C(=C/c2cccc([N+](=O)[O-])c2)COc2ccc(Br)cc21 | > 100 | > 100 | > 100 | 6.57 | > 100 | – | > 100 | > 100 | – | – | – | – | – | – | – | – | – | – | – | –
COc1cc(/C=C(\C#N)c2ccccc2)cc(OC)c1 | > 100 | > 100 | > 100 | > 100 | > 100 | > 100 | > 100 | > 100 | – | – | – | – | – | – | – | – | – | – | – | –
Clc1ccc2c(c1)-c1c3c(nn1-c1ccccc1)-c1ccccc1SC3O2 (stereo unspecified) | > 100 | – | > 100 | > 100 | > 100 | – | > 100 | > 100 | – | – | – | – | – | – | – | – | – | – | – | –
C=CC/C=C/C/C=C/CCCCCCCc1cccc(O)c1C(=O)O | > 100 | > 100 | > 100 | > 100 | > 100 | > 100 | 89.6 | > 100 | – | – | – | – | – | – | – | – | – | – | – | –
CN(C)c1cc[c]([Sn]([c]2ccc(N(C)C)cc2)([c]2ccc(N(C)C)cc2)[c]2ccc(N(C)C)cc2)cc1 | 22.7 | – | 14.8 | 4.76 | 18.9 | 17.4 | – | 28 | – | – | 5.88 | – | 4.3 | 1.55 | 4.32 | 3.68 | – | 6.74 | – | –
N#CC1CC2(C1)OCCS2 (stereo unspecified) | > 100 | > 100 | > 100 | > 100 | > 100 | > 100 | > 100 | > 100 | – | – | – | – | – | – | – | – | – | – | – | –
C/C(N=NC(=S)N(C)C)=C1\C=CC=CN1O | > 100 | > 21.2 | > 100 | > 70.4 | > 44.9 | > 93 | > 100 | > 100 | > 100 | > 100 | – | – | – | – | – | – | – | – | – | –
O=C1[C@@H]2C(c3ccccc3F)=NO[C@@H]2C(=O)N1c1ccc(Cc2ccc(N3C(=O)[C@H]4C(c5ccccc5F)=NO[C@H]4C3=O)cc2)cc1 | > 100 | > 100 | > 100 | > 83.3 | > 100 | > 100 | > 100 | > 100 | – | – | – | – | – | – | – | – | – | – | – | –
NC(=O)NCc1c(C(N)=O)ncn1Cc1ccccc1 | – | > 100 | > 100 | > 100 | > 100 | > 100 | > 100 | > 100 | – | – | – | – | – | – | – | – | – | – | – | –
Cc1c(C(=O)/C=C/c2ccccc2)[n+](=O)c2ccccc2n1[O-] | 29.9 | 27.5 | 35.5 | 45.9 | 30.2 | 28.6 | 31 | 29.5 | – | – | – | – | – | – | – | – | – | – | – | –
O=C(c1ccccc1)C1OC12C(=O)Nc1ccccc12 (stereo unspecified) | – | > 100 | 66.8 | 84.9 | – | > 100 | > 100 | > 100 | – | – | – | – | – | – | – | – | – | – | – | –
O=C(Nc1c(Cl)cc([N+](=O)[O-])cc1Cl)C(=O)C(C1OC(=O)c2ccccc21)[N+](=O)[O-] (stereo unspecified) | > 100 | > 100 | > 100 | > 100 | > 100 | > 100 | > 100 | > 100 | – | – | – | – | – | – | – | – | – | – | – | –
CC(=O)N[C@H]1CSSC[C@@H](C(N)=O)NC(=O)[C@H](C(C)C)NC(=O)[C@H](C)NC(=O)[C@H](Cc2cnc[nH]2)NC1=O | > 100 | – | – | > 100 | > 100 | > 100 | > 100 | > 100 | > 100 | > 100 | > 100 | – | – | > 100 | > 100 | > 100 | > 100 | > 100 | > 100 | > 100
